Measured values reported in patent publication US10316035B2, “Triazolopyridine inhibitors of myeloperoxidase” (BRISTOL-MYERS SQUIBB COMPANY, priority 2015, dated 2019).

Assays:
[1] = target: T1, myeloperoxidase (MPO) (Homo sapiens, UniProt P05164); test: MPO peroxidation assay (Amplex Red assay); type: biochemical
T1 sequence (P05164 49-745): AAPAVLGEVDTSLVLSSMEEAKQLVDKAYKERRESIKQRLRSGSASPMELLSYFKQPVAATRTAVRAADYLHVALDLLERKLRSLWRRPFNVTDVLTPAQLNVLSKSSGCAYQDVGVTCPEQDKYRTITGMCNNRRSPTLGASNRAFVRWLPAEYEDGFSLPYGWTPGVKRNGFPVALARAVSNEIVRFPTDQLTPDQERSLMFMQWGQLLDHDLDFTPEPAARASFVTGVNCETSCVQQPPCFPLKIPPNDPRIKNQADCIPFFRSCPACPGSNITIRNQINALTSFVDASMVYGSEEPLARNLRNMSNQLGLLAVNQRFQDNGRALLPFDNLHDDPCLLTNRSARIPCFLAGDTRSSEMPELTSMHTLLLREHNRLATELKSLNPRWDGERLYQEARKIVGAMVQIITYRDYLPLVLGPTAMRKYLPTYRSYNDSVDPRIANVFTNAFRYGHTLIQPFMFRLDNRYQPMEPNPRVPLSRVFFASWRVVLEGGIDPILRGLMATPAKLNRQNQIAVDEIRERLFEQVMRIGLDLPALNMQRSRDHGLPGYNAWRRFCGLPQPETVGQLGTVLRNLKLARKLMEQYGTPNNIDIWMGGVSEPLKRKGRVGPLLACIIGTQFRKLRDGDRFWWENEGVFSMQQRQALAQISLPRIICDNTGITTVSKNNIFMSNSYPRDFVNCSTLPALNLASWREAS
In short: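 Peroxidase turnover of Amplex Red to fluorescent resorufin (Ex 535/Em 590 nm) was followed for 15 min in 100 mM KPi, pH 7.4, after 10 min room-temperature preincubation of compound with 200 pM enzyme plus 40 nM H2O2. The substrate mix contained 200 μM Amplex Red and 10 mM H2O2. IC50s came from linear-phase rates (180–540 s) fitted with a Hill equation.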

[2] = target: T1, myeloperoxidase (MPO); test: MPO chlorination assay (APF assay); type: biochemical
Procedure: [formula] where A=minimal Y value (activity level of inhibited sample), B=maximal Y value (activity level of uninhibited sample), C=Log IC50, D=Hill Slope, x=concentration of inhibitor. MPO Chlorination Assay (APF Assay)
MPO chlorination activity was measured in 100 mM KPi (pH 7.4) by utilizing the non-fluorescent reagent Aminophenyl fluorescein (APF, Invitrogen catalog #A36003). APF is cleaved by (—OCl) to yield the fluorescent compound fluorescein. Reactions were carried out in 50 μL total volume by adding a 25 μL mixture of 200 pM myeloperoxidase and 120 mM NaCl to 100 nL inhibitor in 100% DMSO in a 384 well, non-binding surface clear bottom plate (CORNING® #3655). Enzyme, inhibitor, and chloride were preincubated for ten minutes at room temperature.
After the ten minute preincubation, 25 μL of an APF mixture containing […], 120 mM NaCl and 10 μM H2O2 was added to the plate using the internal dispensing system of a Hammatsu FDSS 6000. Kinetic determinations were carried out immediately on the FDSS 6000 (3 minute kinetic read, 1 read every second, ex: 485 nm, em: 535 nm). IC50 values for inhibitors were calculated by taking the slope of the linear portion of the kinetic measurement (20 seconds to ˜80-120 secs).
IC50 values were calculated by determining the slope of the linear portion of the kinetic trace ([…]), and using that calculated slope to determine % inhibition occurring at each concentration of inhibitor using the following equation:
[formula] where A=minimal Y value (activity level of inhibited sample), B=maximal Y value (activity level of uninhibited sample), C=Log IC50, D=Hill Slope, x=concentration of inhibitor. EPX Bromination Assay

[3] = MPO peroxidation, potency range class, read-out: Amplex Red IC50
[4] = MPO chlorination, potency range class, read-out: APF IC50

| Compound | IC50 [1, 3] [nM] | IC50 [2, 4] [nM] | IC50 [1] [nM] | IC50 [2] [nM] |
| --- | --- | --- | --- | --- |
| NC(=O)c1ccccc1COc1cc(N)nc2[nH]nnc12 [Example 254, 2-(((5-Amino-3H-[1,2,3]triazolo[4,5-b]pyridin-7-yl)oxy)methyl)benzamide] | 1000 to 10000 | 1000 to 10000 | – | – |
| Nc1cc(OCC2CCCc3ccccc32)c2nn[nH]c2n1 (stereo not drawn) [Example 52, 7-((1,2,3,4-Tetrahydronaphthalen-1-yl)methoxy)-3H-[1,2,3]triazolo[4,5-b]pyridin-5-amine] | 101 to 999 | 1000 to 10000 | – | – |
| CS(=O)(=O)c1ccc(Cl)cc1COc1cc(N)nc2[nH]nnc12 [Example 50, 7-(5-Chloro-2-(methylsulfonyl)benzyloxy)-3H-[1,2,3]triazolo[4,5-b]pyridin-5-amine] | 1 to 100 | 101 to 999 | – | – |
| Nc1cc(OCc2c(F)ccc(-c3cncc(C(=O)N4CCOCC4)c3)c2Cl)c2nn[nH]c2n1 [Example 345, (5-(3-(((5-amino-3H-[1,2,3]triazolo[4,5-b]pyridin-7-yl)oxy)methyl)-2-chloro-4-fluorophenyl)pyridin-3-yl)(morpholine) methanone] | 101 to 999 | 1000 to 10000 | – | – |
| COc1ncc(-c2cc(F)c(COc3cc(N)nc4[nH]nnc34)c(F)c2)cn1 [Example 334, 7-((2,6-difluoro-4-(2-methoxypyrimidin-5-yl)benzyl)oxy)-3H-[1,2,3]triazolo[4,5-b] pyridin-5-amine] | 1 to 100 | 101 to 999 | – | – |
| Nc1cc(OCc2cc(C(=O)N3CCC(Cc4ccccc4)C3)ccc2Cl)c2nn[nH]c2n1 (stereo not drawn) [Example 177, (3-((5-amino-3H-[1,2,3]triazolo [4,5-b]pyridin-7-yloxy)methyl)-4-chlorophenyl)(3-benzylpyrrolidin-1-yl)methanone] | 101 to 999 | 1000 to 10000 | – | – |
| Nc1cc(OCc2c(Cl)cccc2Cl)c2nn[nH]c2n1 [Example 234, 7-((2,6-Dichlorobenzyl)oxy)-3H-[1,2,3]triazolo[4,5-b]pyridin-5-amine] | – | – | 1 to 100 | 1 to 100 |
| Nc1cc(OCc2ccc(-c3ccc(N4CCNCC4)nc3)cc2OC(F)(F)F)c2nn[nH]c2n1 [Example 297, 7-((4-(6-(piperazin-1-yl)pyridin-3-yl)-2-(trifluoromethoxy)benzyl)oxy)-3H-[1,2,3] triazolo[4,5-b]pyridin-5-amine] | 1 to 100 | – | – | – |
| Nc1cc(OCc2cccc(Br)c2)c2nn[nH]c2n1 [Example 148, 7-(3-Bromobenzyloxy)-3H-[1,2,3]triazolo[4,5-b]pyridin-5-amine] | 1 to 100 | – | – | – |
| COC(=O)c1cccc(COc2cc(N)nc3[nH]nnc23)c1Cl [Example 24, Methyl 3-((5-amino-3H-[1,2,3]triazolo[4,5-b]pyridin-7-yloxy)methyl)-2-chlorobenzoate] | 1 to 100 | – | – | – |
| Nc1cc(OCc2cc(-c3ccc(CO)nc3)ccc2F)c2nn[nH]c2n1 [Example 347, (5-(3-(((5-amino-3H-[1,2,3]triazolo[4,5-b]pyridin-7-yl)oxy)methyl)-4-fluorophenyl)pyridin-2-yl)methanol] | 1 to 100 | – | – | – |
| Nc1cc(OCc2c(F)cc(-c3cccnc3)cc2F)c2nn[nH]c2n1 [Example 332, 7-((2,6-difluoro-4-(pyridin-3-yl)benzyl)oxy)-3H-[1,2,3] triazolo[4,5-b]pyridin-5-amine] | 1 to 100 | – | – | – |
| CS(=O)(=O)c1cc(-n2ncc3ccccc32)ccc1COc1cc(N)nc2[nH]nnc12 [Example 282, 7-((4-(1H-indazol-1-yl)-2-(methylsulfonyl)benzyl)oxy)-3H-[1,2,3]triazol[4,5-b] pyridin-5-amine] | 1 to 100 | – | – | – |
| N#Cc1cc(-c2ccc(F)nc2F)ccc1COc1cc(N)nc2[nH]nnc12 [Example 324, 2-(((5-amino-3H-[1,2,3]triazolo[4,5-b]pyridin-7-yl)oxy)methyl)-5-(2,6-difluoropyridin-3-yl)benzonitrile] | 1 to 100 | – | – | – |
| CN1CCN(c2ncc(-c3ccc(F)c(COc4cc(N)nc5[nH]nnc45)c3Cl)cn2)CC1 [Example 348, 7-((2-chloro-6-fluoro-3-(2-(4-methylpiperazin-1-yl)pyrimidin-5-yl)benzyl)oxy)-3H-[1,2,3]triazolo[4,5-b] pyridin-5-amine] | 101 to 999 | – | – | – |
| COc1ccc(-c2cccc(F)c2)cc1COc1cc(N)nc2[nH]nnc12 [Example 66, 7-((3′-Fluoro-4-methoxybiphenyl-3-yl)methoxy)-3H-[1,2,3]triazolo[4,5-b]pyridin-5-amine] | 1 to 100 | – | – | – |
| CS(=O)(=O)N1CCN(c2ccc(-c3ccc(COc4cc(N)nc5[nH]nnc45)c(OC(F)(F)F)c3)cn2)CC1 [Example 295, 7-((4-(6-(4-(methylsulfonyl)piperazin-1-yl)pyridin-3-yl)-2-(trifluoromethoxy)benzyl)oxy)-3H-[1,2,3] triazolo[4,5-b]pyridin-5-amine] | 101 to 999 | – | – | – |
| Nc1cc(OCc2cccc(-c3cncc(F)c3)c2)c2nn[nH]c2n1 [Example 121, 7-(3-(5-Fluoropyridin-3-yl)benzyloxy)-3H-[1,2,3]triazolo[4,5-b]pyridin-5-amine] | 1 to 100 | – | – | – |

More lines, now with the values ahead:

| IC50 [1, 3] [nM] | IC50 [2, 4] [nM] | IC50 [1] [nM] | IC50 [2] [nM] | Compound |
| --- | --- | --- | --- | --- |
| 1 to 100 | 101 to 999 | – | – | CC(C)n1cc(-c2ccc(COc3cc(N)nc4[nH]nnc34)c(OC(F)(F)F)c2)cn1 [Example 305, 7-((4-(1-isopropyl-1H-pyrazol-4-yl)-2-(trifluoromethoxy)benzyl)oxy)-3H-[1,2,3] triazolo[4,5-b]pyridin-5-amine] |
| 1 to 100 | 101 to 999 | – | – | CC(Oc1cc(N)nc2[nH]nnc12)c1cccc(F)c1 (stereo not drawn) [Example 139, 7-(1-(3-Fluorophenyl)ethoxy)-3H-[1,2,3]triazolo[4,5-b]pyridin-5-amine] |
| 1 to 100 | 1 to 100 | – | – | Nc1cc(OCc2cc(Cl)ccc2OC(F)(F)F)c2nn[nH]c2n1 [Example 36, 7-(5-Chloro-2-(trifluoromethoxy)benzyloxy)-3H-[1,2,3]triazolo[4,5-b]pyridin-5-amine] |
| 1 to 100 | 1000 to 10000 | – | – | Nc1cc(OCc2ccc(-n3cc(C(F)(F)F)cn3)cc2OC(F)(F)F)c2nn[nH]c2n1 [Example 271, 7-((2-(trifluoromethoxy)-4-(4-(trifluoromethyl)-1H-pyrazol-1-yl)benzyl)oxy)-3H-[1,2,3]triazolo[4,5-b]pyridin-5-amine] |
| 1 to 100 | 1 to 100 | – | – | Nc1cc(OCc2c(F)cc(-c3ccc(N4CCNCC4)nc3)cc2F)c2nn[nH]c2n1 [Example 336, 7-((2,6-difluoro-4-(6-(piperazin-1-yl)pyridin-3-yl)benzyl)oxy)-3H-[1,2,3]triazolo[4,5-b] pyridin-5-amine] |
| 1 to 100 | 101 to 999 | – | – | CC1CCCC(C)C1COc1cc(N)nc2[nH]nnc12 (stereo not drawn) [Example 133, 7-((2,6-Dimethylcyclohexyl)methoxy)-3H-[1,2,3]triazolo[4,5-b]pyridin-5-amine] |
| 1 to 100 | 1 to 100 | – | – | COc1ccc(Cl)cc1COc1cc(N)nc2[nH]nnc12 [Example 57, 7-(5-Chloro-2-methoxybenzyloxy)-3H-[1,2,3]triazolo[4,5-b]pyridin-5-amine] |
| 1 to 100 | 1 to 100 | – | – | COc1cc(Br)ccc1COc1cc(N)nc2[nH]nnc12 [Example 242, 7-((4-Bromo-2-methoxybenzyl)oxy)-3H-[1,2,3]triazolo[4,5-b]pyridin-5-amine] |
| 1 to 100 | 1 to 100 | – | – | Nc1cc(OCc2cc(Br)ccc2F)c2nn[nH]c2n1 [Example 61, 7-(5-Bromo-2-fluorobenzyloxy)-3H-[1,2,3]triazolo[4,5-b]pyridin-5-amine] |
| 1 to 100 | 101 to 999 | – | – | Nc1cc(OCc2cc(S(F)(F)(F)(F)F)ccc2F)c2nn[nH]c2n1 [Example 226, 7-(5-Pentafluorosulfanyl-2-fluorobenzyloxy)-3H-[1,2,3]triazolo[4,5-b]pyridin-5-amine] |
